Assay results reported in patent US8927046B2, “Resveratrol compositions” (DSM IP Assets B.V., priority 2009, dated 2015).

What was measured:
Format in all cases: physicochemical
[1] = trans-resveratrol suspended in mineral drink water (Arkina) after pasteurization at 80° C. for 1 minute; HPLC concentration and deposit observation; conditions: for Concentration after 18 hours / Concentration after 5 days / Concentration initial: HPLC
Experimental: (§1) At 80° C. in water, resveratrol crystals need more than 15 minutes to dissolve completely to reach a concentration of 120 mg/liter. […] After the milling, the resveratrol CWS is dissolved within 1 minute at 80° C. 1 minute at 80° C. are standard conditions for the pasteurization step for the production of the beverages. This dissolution of the resveratrol during this pasteurization step ensures a good physical stability of the resveratrol in the beverages.
Different concentration of Resvida™ (resveratrol cryst.) not milled were dispersed in mineral drink water (Arkina) and pasteurized at 80° C. for 1 minute. The following results with trans-resveratrol suspended in water (analysis done with HPLC) have been obtained:
This powder was dissolved in mineral drink water (Arkina) and pasteurized at 80° C. for 1 minute. The following results with trans-resveratrol suspended in water (analysis done with HPLC) have been obtained: […]

[2] = Dissolution time in water at 80° C.; conditions: at 80° C. in water, to reach a concentration of 120 mg/liter
Experimental: as §1

[3] = Deposits or visible recrystallization in beverages
Excerpt: Preparation: • Dissolve potassium sorbate in a small quantity of water. • Add citric acid solution, dry vitamin E 15% CC and resveratrol CWS. • Stir until all ingredients have dissolved. • Add sugar, stir again and add water to 1 liter. • Fill into appropriate packages and pasteurize or pasteurize and fill aseptically.
Preparation: • Dissolve potassium sorbate in a part of water under stirring. • Add resveratrol CWS under further stirring. • Add sugar syrup, ascorbic acid, citric acid solution, water-soluble flavour and beta-carotene solution, one after the other, under stirring (no high-speed mixer). • Dilute the bottling syrup to one liter of beverage. • Fill into appropriate packages and pasteurize or pasteurize and fill aseptically.

[4] = theoretical concentration 81.5 mg/liter, mineral drink water, pasteurized 80° C. 1 minute
[5] = theoretical concentration 98.5 mg/liter, mineral drink water, pasteurized 80° C. 1 minute
[6] = theoretical concentration 119 mg/liter, mineral drink water, pasteurized 80° C. 1 minute
[7] = theoretical concentration 160 mg/liter, mineral drink water, pasteurized 80° C. 1 minute
[8] = theoretical concentration 205.5 mg/liter, mineral drink water, pasteurized 80° C. 1 minute

Observation [1, 4]: Deposits + | Concentration after 18 hours [1, 4]: 62.0 µg/mL | Concentration after 5 days [1, 4]: 65.0 µg/mL | Concentration initial [1, 4]: 71.8 µg/mL | Concentration after 18 hours [1, 5]: 67.0 µg/mL | Concentration after 5 days [1, 5]: 47.1 µg/mL | Concentration initial [1, 5]: 87.4 µg/mL | Concentration after 18 hours [1, 6]: 67.7 µg/mL | Concentration after 5 days [1, 6]: 55.5 µg/mL | Concentration initial [1, 6]: 102.6 µg/mL | Concentration after 18 hours [1, 7]: 67.5 µg/mL | Concentration after 5 days [1, 7]: 46.4 µg/mL | Concentration initial [1, 7]: 123.7 µg/mL | Concentration after 18 hours [1, 8]: 61.3 µg/mL | Concentration after 5 days [1, 8]: 40.5 µg/mL | Concentration initial [1, 8]: 142.0 µg/mL | time to dissolve completely [2]: more than 15 minutes
SMILES: Oc1ccc(C=Cc2cc(O)cc(O)c2)cc1 [Resvida, 3,5,4′-trihydroxystilbene]
physical stability of resveratrol dissolved at 80° C. ([1]; at room temperature, after dissolution in water at 80° C.): crystallize and make deposits within a couple of days | deposit when used instead of the CWS form ([3]; near water beverage of Example 9): a deposit remained which could not be dissolved | deposit when used instead of the CWS form ([3]; soft drink of Example 10): a deposit remains which can not be dissolved
